According to patent publication US6720346B2, “Thiazole benzamide derivatives and pharmaceutical compositions for inhibiting cell proliferation” (Agouron Pharmaceuticals, Inc., priority 2001, dated 2004):

Experiments:
[1] = target: T1, CDK2/cyclin A (Homo sapiens, UniProt P24941); assay: Inhibition of CDK2/cyclin A retinoblastoma kinase activity (Ki; % inhibition); format: biochemical; conditions: at 0.03 μM
T1 construct: made in house; host or cells: CDK2: insect cells (baculovirus); cyclin A: E. coli
Outline: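 Apparent Ki values came from fitting concentration-dependent activity data to competitive (or competitive tight-binding) models, and % inhibition from single 30 nM screens of library compounds. Activity was measured as ³²P/³³P incorporation from 25 μM ATP into an Rb substrate by 10 or 19 nM CDK2/delta cyclin A at 30 °C over 60–75 min, pH 7.4.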

[2] = system: HCT-116 cell line; assay: Inhibition of cell growth, MTT tetrazolium salt assay; format: cell-based; conditions: HCT-116, at 0.25 μM
Outline: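 HCT-116 cells in McCoy's 5A were dosed 4 h after plating with compounds in 0.5% DMSO and grown 3–5 days at 37 °C. Then 0.2 mg/mL MTT was added for 4 h and formazan absorbance read at 540 nm. IC50/IC90 came from semi-log plots against DMSO-only controls.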

[3] = target: T2, human CDK4/cyclin D3 (Homo sapiens, UniProt P11802); assay: Inhibition of CDK4/cyclin D retinoblastoma kinase activity (Ki; % inhibition); format: biochemical; conditions: at 0.03 μM
T2 construct: made in house; host or cells: insect cells co-infected with baculovirus vectors
Outline: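 Radiometric filter-binding read-out: Rb residues 386-928 phosphorylated by 5 nM CDK4/cyclin D3(1-264) from baculovirus-infected insect cells, 25 μM ATP, HEPES pH 7.4, 30 °C. Run 20 min, or 60 min for tight-binding inhibitors. Screening at 30 nM theoretical compound; apparent Ki by competitive-inhibition fitting.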

T2 sequence (P11802 whole entry): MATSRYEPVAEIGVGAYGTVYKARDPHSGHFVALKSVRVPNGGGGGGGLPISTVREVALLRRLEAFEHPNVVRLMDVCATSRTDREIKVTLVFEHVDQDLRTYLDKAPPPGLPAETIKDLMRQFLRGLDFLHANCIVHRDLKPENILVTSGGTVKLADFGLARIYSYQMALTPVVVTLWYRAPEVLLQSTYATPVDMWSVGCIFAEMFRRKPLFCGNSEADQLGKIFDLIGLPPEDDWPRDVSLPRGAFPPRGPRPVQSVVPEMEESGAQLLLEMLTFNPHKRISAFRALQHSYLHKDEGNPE
T2 sequence (P30281 1-264 partner limits assumed): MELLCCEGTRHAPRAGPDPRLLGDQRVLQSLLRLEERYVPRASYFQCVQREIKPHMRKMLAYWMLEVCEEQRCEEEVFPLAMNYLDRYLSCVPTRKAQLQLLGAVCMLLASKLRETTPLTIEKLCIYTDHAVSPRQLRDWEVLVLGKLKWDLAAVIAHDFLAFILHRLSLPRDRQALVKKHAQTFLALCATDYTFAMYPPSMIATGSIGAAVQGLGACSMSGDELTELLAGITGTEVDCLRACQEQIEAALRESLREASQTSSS

Row | SMILES | CDK2 % Inhibition at 0.03 μM [1] [%] | HCT-116 % Inhibition at 0.25 μM [2] [%] | CDK4 % Inhibition at 0.03 μM [3] [%]
1 | Nc1nc(Nc2ccc(C(=O)N3CCN(Cc4ccc5c(c4)OCO5)CC3)cc2)sc1C(=O)c1c(F)cccc1F [Example G62] | 7 | 50 | 22
2 | Nc1nc(Nc2ccc(C(=O)N3CCC(CCO)CC3)cc2)sc1C(=O)c1c(F)cccc1F [Example G63] | 4 | 54 | 7
3 | CN(C)CCCN(C)C(=O)c1ccc(Nc2nc(N)c(C(=O)c3c(F)cccc3F)s2)cc1 [Example G64] | 5 | 57 | 17
4 | CC(=O)N1CCN(C(=O)c2ccc(Nc3nc(N)c(C(=O)c4c(F)cccc4F)s3)cc2)CC1 [Example G65] | 12 | 58 | 17
5 | CC(=O)Nc1ccc(NC(=O)c2ccc(Nc3nc(N)c(C(=O)c4c(F)cccc4F)s3)cc2)cc1 [Example G66] | 26 | 60 | 14
6 | Nc1nc(Nc2ccc(C(=O)Nc3cccc4ncccc34)cc2)sc1C(=O)c1c(F)cccc1F [Example G67] | 25 | 82 | 12
7 | Nc1nc(Nc2ccc(C(=O)Nc3cc(F)cc(F)c3)cc2)sc1C(=O)c1c(F)cccc1F [Example G68] | 6 | 59 | 3
8 | CC(C)c1ccc(NC(=O)c2ccc(Nc3nc(N)c(C(=O)c4c(F)cccc4F)s3)cc2)cc1 [Example G69] | 7 | 70 | 3
9 | CC(C)N(Cc1ccccc1)C(=O)c1ccc(Nc2nc(N)c(C(=O)c3c(F)cccc3F)s2)cc1 [Example G70] | −4 | 53 | 10
10 | CN(CCc1ccccn1)C(=O)c1ccc(Nc2nc(N)c(C(=O)c3c(F)cccc3F)s2)cc1 [Example G71] | 3 | 59 | 16
11 | CC(C)CN(C)C(=O)c1ccc(Nc2nc(N)c(C(=O)c3c(F)cccc3F)s2)cc1 [Example G72] | 2 | 54 | 12
12 | CC(=O)NC1CCN(C(=O)c2ccc(Nc3nc(N)c(C(=O)c4c(F)cccc4F)s3)cc2)C1 (stereo not drawn) [Example G73] | 19 | 56 | 18
13 | Nc1nc(Nc2ccc(C(=O)Nc3ccc(O)cc3)cc2)sc1C(=O)c1c(F)cccc1F [Example G74] | 23 | 78 | 18
14 | Nc1nc(Nc2ccc(C(=O)Nc3ccc4ncccc4c3)cc2)sc1C(=O)c1c(F)cccc1F [Example G75] | 21 | 64 | 15
15 | Nc1nc(Nc2ccc(C(=O)Nc3cccc(Cl)c3)cc2)sc1C(=O)c1c(F)cccc1F [Example G76] | 7 | 61 | 7
16 | COC(=O)[C@H](C(C)C)N(C)C(=O)c1ccc(Nc2nc(N)c(C(=O)c3c(F)cccc3F)s2)cc1 [Example G77] | 9 | 51 | 6
17 | Nc1nc(Nc2ccc(C(=O)N3CCN(C=O)CC3)cc2)sc1C(=O)c1c(F)cccc1F [Example G78] | 11 | 58 | 13
18 | Nc1nc(Nc2ccc(C(=O)N3CCc4ccccc4C3)cc2)sc1C(=O)c1c(F)cccc1F [Example G79] | 2 | 51 | 10
19 | CN(C(=O)c1ccc(Nc2nc(N)c(C(=O)c3c(F)cccc3F)s2)cc1)C1CCCC1 [Example G80] | 3 | 36 | 7
